{
  "source": "patent US20240270748A1",
  "about": "(Merck Patent GmbH, priority 2021, published 2024)",
  "note": "pIC50: −log10 of the molar value. Where a name gives a salt, the structure may show the parent alone.",
  "data": [
    {"test_system": "YAP-TEAD interaction", "experiment": "SK-HEP-1 reporter assay (8xTEAD responsive elements driving NanoLuc luciferase)", "assay_type": "cell-based", "conditions": "Homo sapiens, SK-HEP1, SK-HEP-1 reporter assay; class symbols", "in_short": "(§1)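 Reporter read-out: NanoLuc luminescence from 8×TEAD elements stably integrated in SK-HEP-1 cells, after 24 h compound exposure at 37° C. Ten concentrations tested in duplicate, top 30 μM final, 0.3% DMSO; IC50 from curve.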", "values": [
      {"compound": "Cn1cc2c3cc(C(=O)NC4(CO)CCNCC4)ccc3n(-c3ccc(C(F)(F)F)cc3)c2n1", "note": "[Example C218, N-[4-(hydroxymethyl)piperidin-4-yl]-2-methyl-8-[4-(trifluoromethyl)phenyl]-2H,8H-pyrazolo[3,4-b]indole-5-carboxamide]", "pIC50": "5.00 to 7.00"},
      {"compound": "Cn1cc2c3cc(NC(=O)CCN)ccc3n(-c3ccc(C(F)(F)F)cc3)c2n1", "note": "[Example C221, 3-amino-N-{2-methyl-8-[4-(trifluoromethyl)phenyl]-2H,8H-pyrazolo[3,4-b]indol-5-yl}propanamide]", "pIC50": "5.00 to 7.00"},
      {"compound": "CNCCC(=O)Nc1ccc2c(c1)c1cn(C)nc1n2-c1ccc(C(F)(F)F)cc1", "note": "[Example C222, N-{2-methyl-8-[4-(trifluoromethyl)-phenyl]-2H,8H-pyrazolo[3,4-b]indol-5-yl}-3-(methylamino)propanamide]", "pIC50": "5.00 to 7.00"},
      {"compound": "Cn1cc2c3cc(NC(=O)CC4CCNC4)ccc3n(-c3ccc(C(F)(F)F)cc3)c2n1", "note": "(centres unmarked) [Example C223, N-{2-methyl-8-[4-(trifluoromethyl)-phenyl]-2H,8H-pyrazolo[3,4-b]indol-5-yl}-2-(pyrrolidin-3-yl)acetamide]", "pIC50": "5.00 to 7.00"},
      {"compound": "Cn1cc2c3cc(NC(=O)CNC4CCNC4)ccc3n(-c3ccc(C(F)(F)F)cc3)c2n1", "note": "(centres unmarked) [Example C224, N-{2-methyl-8-[4-(trifluoromethyl)phenyl]-2H,8H-pyrazolo[3,4-b]indol-5-yl}-2-[{pyrrolidin-3-yl)amino]acetamide]", "pIC50": "5.00 to 7.00"},
      {"compound": "Cn1cc2c3cc(C(=O)N[C@@H](CO)c4ccccn4)cnc3n(-c3ccc(C(F)(F)F)cc3)c2n1", "note": "[Example C228, N-[(1R)-2-hydroxy-1-(pyridin-2-yl)ethyl]-4-methyl-7-[4-(trifluoromethyl)phenyl]-4,5,7,9-tetraazatricyclo[6.4.0.0^2,6]dodeca-1(8),2,5,9,11-pentaene-11-carboxamide]", "pIC50": "7.00 to 8.00"},
      {"compound": "Cn1cc2c3nc(C(N)=O)ccc3n(-c3ccc(C(F)(F)F)cc3)c2n1", "note": "[Example C229, 4-methyl-7-[4-(trifluoromethyl)phenyl]-4,5,7,12-tetraazatricyclo[6.4.0.0^2,6]dodeca-1(8),2,5,9,11-pentaene-11-carboxamide]", "pIC50": "5.00 to 7.00"},
      {"compound": "Cn1nc2c3cc(C4CC(n5ccnn5)=NO4)ccc3n(-c3ccc(C(F)(F)F)cc3)c2n1", "note": "(centres unmarked) [Example C232, 1-(5-{2-methyl-4-[4-(trifluoromethyl)phenyl]-3H,4H-[1,2,3]triazolo[4,5-b]indol-7-yl}-4,5-dihydro-1,2-oxazol-3-yl)-1H-1,2,3-triazole]", "pIC50": "5.00 to 7.00"},
      {"compound": "Cn1nc2c3cc(C4CC(Oc5cncnc5)=NO4)ccc3n(-c3ccc(C(F)(F)F)cc3)c2n1", "note": "(centres unmarked) [Example C234, 5-[(5-{2-methyl-4-[4-(trifluoromethyl)-phenyl]-2H,4H-[1,2,3]triazolo[4,5-b]indol-7-yl}-4,5-dihydro-1,2-oxazol-3-yl)oxy]pyrimidine]", "pIC50": "7.00 to 8.00"},
      {"compound": "Cn1cc2c3cc(NC(=O)COC4CNC4)ccc3n(-c3ccc(C(F)(F)F)cc3)c2n1", "note": "[Example C243, 2-(azetidin-3-yloxy)-N-{2-methyl-8-[4-(trifluoromethyl)phenyl]-2H,8H-pyrazolo[3,4-b]indol-5-yl}acetamide formate]", "pIC50": "5.00 to 7.00"},
      {"compound": "Cn1cc2c3cc(NC(=O)CC4CNC4)ccc3n(-c3ccc(C(F)(F)F)cc3)c2n1", "note": "[Example C244, 2-(azetidin-3-yl)-N-{2-methyl-8-[4-(trifluoromethyl)phenyl]-2H,8H-pyrazolo[3,4-b]indol-5-yl}acetamide formate]", "pIC50": "5.00 to 7.00"},
      {"compound": "CCCn1cc2c3cc(C(=O)N[C@@H](CO)c4ccccn4)ccc3n(-c3ccc(C(F)(F)F)cc3)c2n1", "note": "[Example C255, N-[(1R)-2-hydroxy-1-(pyridin-2-yl)ethyl]-2-propyl-8-[4-(trifluoromethyl)phenyl]-2H,8H-pyrazolo[3,4-b]indole-5-carboxamide]", "pIC50": "< 5.00"},
      {"compound": "CCn1cc2c3cc(C(=O)N[C@@H](CO)c4ccccn4)ccc3n(-c3ccc(C(F)(F)F)cc3)c2n1", "note": "[Example C256, 2-ethyl-N-[(1R)-2-hydroxy-1-(pyridin-2-yl)ethyl]-8-[4-(trifluoromethyl)phenyl]-2H,8H-pyrazolo[3,4-b]indole-5-carboxamide]", "pIC50": "8.00 to 9.00"},
      {"compound": "Cn1nc2c3cc(C(=O)O)ccc3n(-c3ccc(C(F)(F)F)cc3F)c2n1", "note": "[Example C258, 4-[2-fluoro-4-(trifluoromethyl)phenyl]-2-methyl-2H,4H-[1,2,3]triazolo[4,5-b]indole-7-carboxylic acid]", "pIC50": "8.00 to 9.00"},
      {"compound": "Cn1cc2c3cc(NC(=O)CC4(O)CNC4)ccc3n(-c3ccc(C(F)(F)F)cc3)c2n1", "note": "[Example C259, 2-(3-hydroxyazetidin-3-yl)-N-{2-methyl-8-[4-(trifluoromethyl)phenyl]-2H,8H-pyrazolo[3,4-b]indol-5-yl}acetamide Formate]", "pIC50": "5.00 to 7.00"},
      {"compound": "C[C@H](NC(=O)c1ccc2c(c1)c1cn(C)nc1n2-c1ccc(C(F)(F)F)cc1)c1ccnc(N)c1", "note": "[Example C264]", "pIC50": "5.00 to 7.00"},
      {"compound": "C[C@H](NC(=O)c1ccc2c(c1)c1cn(C)nc1n2-c1ccc(C(F)(F)F)cc1)c1ccc(Cl)nc1", "note": "[Example C265, N-[(1S)-1-(6-chloropyridin-3-yl)ethyl]-2-methyl-8-[4-(trifluoromethyl)phenyl]-2H,8H-pyrazolo[3,4-b]indole-5-carboxamide]", "pIC50": "7.00 to 8.00"},
      {"compound": "Cn1cc2c3cc(C(=O)NC(CO)c4nncn4C)ccc3n(-c3ccc(C(F)(F)F)cc3)c2n1", "note": "(centres unmarked) [Example C267, N-[2-hydroxy-1-(4-methyl-4H-1,2,4-triazol-3-yl)ethyl]-2-methyl-8-[4-(trifluoromethyl)phenyl]-2H,8H-pyrazolo[3,4-b]indole-5-carboxamide]", "pIC50": "5.00 to 7.00"},
      {"compound": "Cc1noc(C(CO)NC(=O)c2ccc3c(c2)c2cn(C)nc2n3-c2ccc(C(F)(F)F)cc2)n1", "note": "(centres unmarked) [Example C268, N-[2-hydroxy-1-(3-methyl-1,2,4-oxadiazol-5-yl)ethyl]-2-methyl-8-[4-(trifluoromethyl)phenyl]-2H,8H-pyrazolo[3,4-b]indole-5-carboxamide]", "pIC50": "5.00 to 7.00"},
      {"compound": "Cn1cc2c3cc(C(=O)/N=S4/CC(N)CO4)ccc3n(-c3ccc(C(F)(F)F)cc3)c2n1", "note": "(centres unmarked) [Example C269, N-(4-amino-1,2lambda4-oxathiolan-2-ylidene)-2-methyl-8-[4-(trifluoromethyl)phenyl]-2H,8H-pyrazolo[3,4-b]indole-5-carboxamide formate]", "pIC50": "5.00 to 7.00"},
      {"compound": "Cn1cc2c3cc(C(=O)N=S4(=O)CC(N)C4)ccc3n(-c3ccc(C(F)(F)F)cc3)c2n1", "note": "(centres unmarked) [Example C270, N-(3-amino-1-oxo-1¿6-thietan-1-ylidene)-2-methyl-8-[4-(trifluoromethyl)phenyl]-2H,8H-pyrazolo[3,4-b]indole-5-carboxamide formate]", "pIC50": "7.00 to 8.00"},
      {"compound": "Cn1cc2c3cc(C(=O)N=S4(=O)CC5(CNC5)C4)ccc3n(-c3ccc(C(F)(F)F)cc3)c2n1", "note": "[Example C271, 2-methyl-N-{2-oxo-2¿6-thia-6-azaspiro[3.3]heptan-2-ylidene}-8-[4-(trifluoromethyl)phenyl]-2H,8H-pyrazolo[3,4-b]indole-5-carboxamide Formate]", "pIC50": "5.00 to 7.00"},
      {"compound": "Cn1nc2c3cc(C(=O)NC(CO)c4nncn4C)ccc3n(-c3ccc(C(F)(F)F)cc3)c2n1", "note": "(centres unmarked) [Example C274, N-[2-hydroxy-1-(4-methyl-4H-1,2,4-triazol-3-yl)ethyl]-2-methyl-4-[4-(trifluoromethyl)phenyl]-2H,4H-[1,2,3]triazolo[4,5-b]indole-7-carboxamide]", "pIC50": "5.00 to 7.00"},
      {"compound": "Cn1cc2c3cc(C4CC(F)(F)C(=O)N4)ccc3n(-c3ccc(C(F)(F)F)cc3)c2n1", "note": "(centres unmarked) [Example C275, 3,3-difluoro-5-{2-methyl-8-[4-(trifluoromethyl)phenyl]-2H,8H-pyrazolo[3,4-b]indol-5-yl}pyrrolidin-2-one]", "pIC50": "7.00 to 8.00"}
    ]},
    {"test_system": "YAP-TEAD interaction", "experiment": "SK-HEP-1 reporter assay (8xTEAD responsive elements driving NanoLuc luciferase)", "assay_type": "cell-based", "conditions": "Homo sapiens, SK-HEP1, SK-HEP-1 reporter assay; n.d. = value not detectable below threshold given in parentheses", "in_short": "as §1", "values": [
      {"compound": "Cn1cc2c3cc(C(=O)N=[S@](=O)(CCO)Cc4cccnc4)ccc3n(-c3ccc(C(F)(F)F)cc3)c2n1", "note": "(single isomer, unassigned) [Example C188]", "pIC50": "< 5.02"}
    ]},
    {"test_system": "NCI-H226 cells", "experiment": "Viability assay in NCI-H226 (Yap-dependent) cells, CyQuant", "assay_type": "cell-based, human", "conditions": "Homo sapiens, NCI-H226, 96 h, class symbols", "method": "Viability Assay in NCI-H226 (Yap-Dependent) and SW620 Yap KO (Yap Independent) Cells\nThe ability of YAP-TEAD inhibitors to inhibit tumor cell growth was evaluated using two different cell lines: NCI-H226, which is a YAP dependent cell line, and SW620 cells, where YAP and TAZ were knocked out using CRISPR to generate a YAP independent cell line.\nFor the assay, cells were treated in duplicates with the test compounds in a 10-point dose, 1:3 dilution steps, with the top concentration starting at 30 μM (final concentration in assay). After a 96 hour incubation at 37° C., 95% rH, and 5% CO2, a cell-permeant DNA-binding dye that stains only healthy cells (CyQUANT®, Promega) was added to the cells, allowing the quantification of cell viability.\nCell Media: The NCI-H226 cells were cultured in the following media: RPMI 1640, +10% FBS, +1× GlutaMAX, +10 mM HEPES, +0.5% Pen/Strep. The SW620-KO cells were cultured in the following media: DMEM/F-12, +10% FBS, +1× GlutaMAX, +10 mM HEPES, +0.5% Pen/Strep.\nReagents: The reagents used are listed below:\nCell culture: The cells were examined using an inverted microscope to check for health, cell density, etc. To dissociate adherent cells, the monolayer of cells was washed once with pre-warmed PBS. After removing the PBS, 3 ml pre-warmed Accutase was added to a F75 flask, dispersed evenly and the flask was allowed to sit in incubator for ˜4-5 minutes.\nWhen a single cell suspension was obtained, 7 ml of prewarmed growth media was added and resuspended with the cells. The cell suspension was transferred to a sterile 15 ml conical centrifuge tube, and spun for 5 min at 300×g, RT. The supernatant was discarded and the pellet was resuspended in 10 ml of pre-warmed growth media.\nThe total cell count was determined, and 20 μl of the desired cell number was added to each well of a 384 well plate using a Multidrop Combi. The plates were then incubated for 24 hours at 37° C., 95% rH, and 5% CO2.\nCompound treatment: 24 hours after seeding, the cells were treated with compounds.\nA 1:333 dilution of compounds, diluted in DMSO, was made to get a final concentration of 0.3% DMSO per well. To transfer the compounds to the assay plate, […] was shot from Labcyte low dead volume plates to the cell plates containing 20 μl media/well with the ECHO 555 liquid handling system.\nAfter treatment, the cells were fed with 20 μl fresh pre-warmed assay media using a Multidrop combi.\nThe assay plates were then incubated for 96 h at 37° C., 95% rH, and 5% CO2.\n96 h after treatment 30 μl of CyQuant® reagent was added to the assay plates using a Multidrop combi in the dark. The plates were then incubated for 1 hour at 37° C., 95% rH and 5% CO2. Thereafter, the assay plates were removed from the incubator and allowed to equilibrate to RT for 30 min in the dark without lid. Finally, they were measured using an EnVision microplate reader with a FITC bottom read program.", "values": [
      {"compound": "Cn1cc2c3cc(C(=O)N=[S@](=O)(CCO)Cc4cccnc4)ccc3n(-c3ccc(C(F)(F)F)cc3)c2n1", "note": "(single isomer, unassigned) [Example C188]", "pIC50": "7.00 to 9.00"}
    ]}
  ]
}
